Values of other authors as cited in patent US20120207744A1, “REPROGRAMMING COMPOSITIONS AND METHODS OF USING THE SAME” (priority 2009, published 2012).
Counter-ions that a name gives are not always drawn.

Assays:
[1] = tested on: mouse embryonic fibroblasts; conditions: small-molecule combination BIX-01294 and BayK8644
ES-cell = conditions: repression of MEK/ERK, in culture
[2] = tested on: primary human fibroblasts; conditions: Oct-3/4 and Sox-2, without c-Myc or Klf-4
Oct-3/4-GFP = Oct-3/4-GFP as a reporter
ROCK1/ROCK2 = conditions: inhibits by competing with ATP; Ishizaki et al. 2000
human ESCs = conditions: both appear equally effective in facilitating clonal growth
ESCs = conditions: cyclic activation of Wnt/β-catenin signaling in ESCs
Klf-4 promoter = conditions: transient transfection, 2622-bp mouse Klf-4 promoter

COC(=O)C1=C(C)NC(C)=C([N+](=O)[O-])C1c1ccccc1C(F)(F)F (stereo not drawn) [BayK8644]
reprogramming of Oct-3/4/Klf-4 transduced cells [1]: enables reprogramming

enterostatin
effect on KLF4 gene expression (GT1-7 cells; GT1-7 cells treated with the peptide): inhibited KLF4 gene expression

COc1cccc(-c2cc(=O)c3ccccc3o2)c1N [PD098059]
effect on differentiation and ES-cell self-renewal (ES-cell): inhibits differentiation and maintains ES-cell self-renewal in culture

CCCC(CCC)C(=O)O [valproic acid]
reprogramming with only two factors [2]: enables reprogramming of primary human fibroblasts
improvement of reprogramming efficiency (Oct-3/4-GFP): more than 100 fold

C[C@@H](N)[C@H]1CC[C@H](C(=O)Nc2ccncc2)CC1 [Y-27632, (+)-(R)-trans-4-(1-aminoethyl)-N-(4-pyridyl)cyclohexanecarboxamide dihydrochloride]
IC50 (ROCK1/ROCK2): 800 nM

N#CC(=C(/N)Sc1ccccc1N)/C(C#N)=C(\N)Sc1ccccc1N [U0126]
effect on enterostatin-induced inhibition of KLF4 gene expression (GT1-7 cells; GT1-7 cells, ERK inhibitor): blocked

Cc1cncc2cccc(S(=O)(=O)N3CCCNC[C@@H]3C)c12.Cl.Cl [H-1152, (S)-(+)-2-methyl-1-[(4-methyl-5-isoquinolinyl)sulfonyl]homopiperazine dihydrochloride]
working concentration for facilitating clonal growth, relative to HA-100 (human ESCs): ten times lower working concentrations than HA-100

COc1cc2nc(N3CCCN(C)CC3)nc(NC3CCN(Cc4ccccc4)CC3)c2cc1OC [BIX-01294]
reprogramming of Oct-3/4/Klf-4 transduced cells [1]: enables reprogramming

O=C1Nc2cc(Br)ccc2/C1=C1/Nc2ccccc2/C1=N\O [6-bromoindirubin-3′-oxime]
ability of ESCs to reprogram somatic cells after fusion (ESCs): strikingly enhances

B1: Wnt3a: Wnt protein activating Wnt/β-catenin signaling (protein, UniProt P56704 19-352, looked up)
Protein Wnt-3a: SYPIWWSLAVGPQYSSLGSQPILCASIPGLVPKQLRFCRNYVEIMPSVAEGIKIGIQECQHQFRGRRWNCTTVHDSLAIFGPVLDKATRESAFVHAIASAGVAFAVTRSCAEGTAAICGCSSRHQGSPGKGWKWGGCSEDIEFGGMVSREFADARENRPDARSAMNRHNNEAGRQAIASHMHLKCKCHGLSGSCEVKTCWWSQPDFRAIGDFLKDKYDSASEMVVEKHRESRGWVETLRPRYTYFKVPTERDLVYYEASPNFCEPNPETGSFGTRDRTCNVSSHGIDGCDLLCCGRGHNARAERRREKCRCVFHWCCYVSCQECTRVYDVHTCK
ability of ESCs to reprogram somatic cells after fusion (ESCs): strikingly enhances

B2: IFN-gamma: IFN-gamma, cytokine inducing Klf-4 expression via phosphorylated STAT1 (protein, UniProt P01579 24-161, looked up)
Interferon gamma: QDPYVKEAENLKKYFNAGHSDVADNGTLFLGILKNWKEESDRKIMQSQIVSFYFKLFKNFKDDQSIQKSVETIKEDMNVKFFNSNKKKRDDFEKLTNYSVTDLNVQRKAIHELIQVMAELSPAAKTGKRKRSQMLFRG
increase of Klf-4 promoter activity (Klf-4 promoter): 3.5 fold
